# Results reported in patent US4157399A, “Benzo(B)thiophenes” (Parcor, priority 1976, dated 1979).
# Columns and labels:
# Format in all cases: in vivo
# [1] = Propylthiouracil test, free and total cholesterol in the rat; details: 11th day; propylthiouracil-treated rats; oral 100 mg/Kg
# Procedure: Experiments were carried out according to the propylthiouracil test (RANNEY & Coll., J. PHARMACOL. EXPER. THERAP. 1963, 142, 132-136). The propyl-thiouracil administered to adult rats has the property of making them hypercholesterolemic: the plasma level of cholesterol increases by approximately 15% under these conditions. Experiments are conducted on various batches of rats, the control batch receiving only propylthiouracil and the other treated batches also receiving the composition of the invention at an oral dose of 100 mg/Kg.
# On the 11th day of experimentation blood samples are taken and the free cholesterol and total cholesterol is dosed.
# [2] = tested on: fatty infiltrations of the liver; test: Rabbit autopsy, mark for fatty infiltrations of the liver; details: mark of 0 to 3; end of test (75 days); 100 mg/Kg orally
# Procedure: (§1) The animals divided into several batches of 15 animals are fed with feedstuff enriched in cholesterol (1%). Batch A serves as control and is not treated, the other batches also receive the derivatives to be tested at a dose of 100 mg/Kg, administered orally, suspended in aqueous solution of gum arabic at 5%. On the first day of experimentation and then every 15 days for 75 days biological examinations are conducted on all the animals, during which the various elements causing dyslipemia are dosed; total cholesterol (T), esterified cholesterol (E), free cholesterol (L), esterification ratio (E/T), Kunkel-Phenol test (K1), Kunkelphenol test (K2), Burstein dextrane test (B) and serum lipids (LS).
# (§2) At the end of the test all the animals are killed and an autopsy is carried out; a macroscopic examination is then conducted on the livers and aortas and a mark of 0 to 3 is given to the amount of fatty infiltrations of the liver and 0 to 4 to the intensity of aortic atheromatous lesions.
# [3] = Rabbit fed cholesterol-enriched (1%) feedstuff, dosage of elements causing dyslipemia; parameters: total cholesterol (T) / esterified cholesterol (E) / Kunkelphenol test (K2) / Burstein dextrane test (B) / serum lipids (LS): unit not given here; details: 100 mg/Kg orally
# Procedure: as §1
# [4] = tested on: aortic atheromatous lesions; test: Rabbit autopsy, mark for aortic atheromatous lesions; details: mark of 0 to 4; end of test (75 days); 100 mg/Kg orally
# Procedure: as §1, §2
smiles,measurement,setting,value
"c1ccc(CN(Cc2ccccc2)c2c(-c3ccccc3)sc3ccccc23)cc1 [derivative 19, 3-dibenzylamino-2-phenyl-benzo(b)thiophene]",Free cholesterol,[1],"0,14 g/l"
same,Total cholesterol,[1],"0,58 g/l"
same,fatty infiltrations of the liver,[2],"1,2"
same,Burstein dextrane test (B),[3]; 1st day,"10,9"
same,Kunkel-Phenol test (K1),[3]; 1st day,"8,0"
same,Kunkelphenol test (K2),[3]; 1st day,"13,1"
same,esterification ratio (E/T),[3]; 1st day,"0,50"
same,esterified cholesterol (E),[3]; 1st day,"0,28"
same,free cholesterol (L),[3]; 1st day,"0,29"
same,serum lipids (LS),[3]; 1st day,"1,97"
same,total cholesterol (T),[3]; 1st day,"0,57"
same,Burstein dextrane test (B),[3]; 30th day,"2,3"
same,Kunkel-Phenol test (K1),[3]; 30th day,"18,4"
same,Kunkelphenol test (K2),[3]; 30th day,"25,3"
same,esterification ratio (E/T),[3]; 30th day,"0,64"
same,esterified cholesterol (E),[3]; 30th day,"0,95"
same,free cholesterol (L),[3]; 30th day,"0,52"
same,serum lipids (LS),[3]; 30th day,"2,84"
same,total cholesterol (T),[3]; 30th day,"1,47"
same,Burstein dextrane test (B),[3]; 75th day,"36,1"
same,Kunkel-Phenol test (K1),[3]; 75th day,"33,5"
same,Kunkelphenol test (K2),[3]; 75th day,"46,5"
same,esterification ratio (E/T),[3]; 75th day,"0,61"
same,esterified cholesterol (E),[3]; 75th day,"1,79"
same,free cholesterol (L),[3]; 75th day,"1,12"
same,serum lipids (LS),[3]; 75th day,"4,08"
same,total cholesterol (T),[3]; 75th day,"2,91"
same,aortic atheromatons lesions,[4],"1,3"
